# Experiments:
# [1] = system: T-cell leukaemia (Jurkat); assay: Phototoxicity after UV-A irradiation, MTT test; assay type: cell-based, human; conditions: mean ± SEM
# Experimental: (§1) The evaluation of phototoxic activity was carried out in some human tumour cell lines: T-cell leukaemia (Jurkat), chronic myeloid leukaemia (K-562), colon adenocarcinoma (LoVo) and breast adenocarcinoma (MCF-7). Cellular survival experiments were carried out without irradiation to verify an eventual toxicity of photosensitizer in the dark, and then after two times of irradiation (10 and 15 min of UV-A, which correspond to 2.5 and 3.75 J/cm^2, respectively), using lamps which emit mainly at 365 nm. Cell survival was checked after 72 h of compound incubation or after 72 h from UVA irradiation by Mosmann's MTT reduction test (3-[4,5-dimethyltiazol-2yl] 2,5-diphenyl tetrazolium bromide), (T. Mossman, Rapid colorimetric assay for cellular growth and survival: application to proliferation and cytotoxicity assays, J. Immunol. Meths. 1983, 65, 55-63). […] In Table 2, there are GI50 values, that is the compound concentration required for 50% cell survival, for each cell line and for every time of irradiation.
# [2] = system: colon adenocarcinoma (LoVo); assay: Phototoxicity after UV-A irradiation, MTT test; assay type: cell-based, human; conditions: mean ± SEM
# Experimental: as §1
# [3] = system: chronic myeloid leukaemia (K-562); assay: Phototoxicity after UV-A irradiation, MTT test; assay type: cell-based, human; conditions: mean ± SEM
# Experimental: as §1
# [4] = system: breast adenocarcinoma (MCF-7); assay: Phototoxicity after UV-A irradiation, MTT test; assay type: cell-based, human; conditions: mean ± SEM
# Experimental: as §1
# Jurkat cells = assay: Mitochondrial membrane potential by JC-1 probe after irradiation; assay type: cell-based, human; conditions: JC-1, 2 h from irradiation, with respect to control
# Experimental: Other two tests were performed to have more information about the mechanism of action and to evaluate which organelles were involved in this process. […] (X. Wang, The expanding role of mitochondria in apoptosis, Gen. Develop. 2001, 15, 2922-2933). An eventual mitochondrial involvement in apoptosis induction was evaluated by such a parameter of mitochondrial dysfunction as the loss of mitochondrial membrane potential. Mitochondrial membrane potential of Jurkat cells was monitored by JC-1 probe after their irradiation in the presence of 9j, 9k and 9m (S. Salvioli, A. Ardizzoni, C. Franceschi, A. Cossarizza, JC-1, but not DiOC6(3) or rhodamine 123, is a reliable fluorescent probe to assess […] changes in intact cells: implications for studies on mitochondrial functionality during apoptosis, FEBS Lett. 1997, 411, 77-82).
# plasmid (pBR322) DNA = assay: Plasmid strand break / DNA photodamage experiments (Fpg, Endo III); assay type: biochemical; conditions: pBR322, irradiated, Fpg and Endo III
# Experimental: After having assessed a weak affinity toward this macromolecule in the dark by such spectroscopic techniques as linear dichroism and fluorimetric titrations, some plasmid (pBR322) strand break experiments were carried out to check an eventual DNA photodamage by compounds. The formation of open circular or linear DNA from a supercoiled plasmid DNA was monitored by the separation of the three forms using agarose gel horizontal electrophoresis. Beside the formation of frank strand breaks, oxidative damages to purine and pyrimidine bases were also evaluated, incubating the irradiated mixture with the repair enzyme Fpg (Formamidopyrimidine glycosylase) and Endo III (Endonuclase III), respectively. (B. Epe, M. Pflaum, S. Boiteux, DNA damage induced by photosensitizers in cellular and cell-free systems, Mut. Res. 1993, 299, 135-145; T. A. Ciulla, J. R. Van Camp, E. Rosenfeld, I. Kochevar, Photosensitization of single-strand breaks in pBR322 DNA by Rose Bengal, Photochem. Photobiol. 1989, 49, 293-298).
# [5] = system: human tumour cell lines (Jurkat, K-562, LoVo, MCF-7); assay: Phototoxicity / dark toxicity in all tested human tumour cell lines, MTT test; assay type: cell-based; conditions: after UVA irradiation
# Experimental: as §1
# [6] = Homo sapiens, light or radiation study, 72 h, UV-A 2.5 J/cm^2, 72 h after irradiation
# [7] = Homo sapiens, light or radiation study, 72 h, UV-A 3.75 J/cm^2, 72 h after irradiation
# [8] = Homo sapiens, K562, light or radiation study, 72 h, K-562, UV-A 2.5 J/cm^2, 72 h after irradiation
# [9] = Homo sapiens, K562, light or radiation study, 72 h, K-562, UV-A 3.75 J/cm^2, 72 h after irradiation
# [10] = Homo sapiens, MCF7, light or radiation study, 72 h, MCF-7, UV-A 2.5 J/cm^2, 72 h after irradiation
# [11] = Homo sapiens, MCF7, light or radiation study, 72 h, MCF-7, UV-A 3.75 J/cm^2, 72 h after irradiation
# [12] = UV-A 2.5 J/cm^2, 72 h after irradiation
# [13] = UV-A 3.75 J/cm^2, 72 h after irradiation
# [14] = K-562, UV-A 2.5 J/cm^2, 72 h after irradiation
# [15] = K-562, UV-A 3.75 J/cm^2, 72 h after irradiation
# [16] = MCF-7, UV-A 2.5 J/cm^2, 72 h after irradiation
# [17] = MCF-7, UV-A 3.75 J/cm^2, 72 h after irradiation
SMILES,"GI50 [1, 6]","GI50 [1, 7]","GI50 [2, 6]","GI50 [2, 7]","GI50 [3, 8]","GI50 [3, 9]","GI50 [4, 10]","GI50 [4, 11]",cell percentage with collapsed mitochondrial potential (Jurkat cells),"DNA photodamage (photocleavage, oxidative damages in DNA bases) (plasmid (pBR322) DNA)",GI50 (phototoxic) [5],"GI50 [1, 12]","GI50 [1, 13]","GI50 [2, 12]","GI50 [2, 13]","GI50 [3, 14]","GI50 [3, 15]","GI50 [4, 16]","GI50 [4, 17]"
"O=c1[nH]c2c(cc1S(=O)(=O)c1ccccc1)CCc1ccn(-c3ccccc3)c1-2 [Compound 9f, 1-Phenyl-7-(phenylsulfonyl)-1,4,5,9-tetrahydro-8H-pyrrolo[3,2-h]quinolin-8-one]",> 20000 nM,> 20000 nM,> 20000 nM,> 20000 nM,> 20000 nM,> 20000 nM,> 20000 nM,> 20000 nM,,,,,,,,,,,
"CCOC(=O)c1cc2c(n1Cc1ccccc1)-c1[nH]c(=O)c(S(=O)(=O)c3ccccc3)cc1CC2 [Compound 9k, Ethyl 1-benzyl-7-(phenylsulfonyl)-1,4,5,9-tetrahydro-8H-pyrrolo[3,2-h]quinolin-8-one-2-carboxylate]",800 ± 100 nM,600 ± 100 nM,900 ± 100 nM,800 ± 100 nM,900 ± 100 nM,600 ± 100 nM,900 ± 100 nM,800 ± 100 nM,increase of cell percentage with collapsed mitochondrial potential,do not induce DNA photodamage,submicromolar,,,,,,,,
"O=c1[nH]c2c(cc1S(=O)(=O)c1ccccc1)CCc1ccn(Cc3ccccc3)c1-2 [Compound 9e, 1-Benzyl-7-(phenylsulfonyl)-1,4,5,9-tetrahydro-8H-pyrrolo[3,2-h]quinolin-8-one]",1300 ± 200 nM,1100 ± 100 nM,2600 ± 200 nM,2200 ± 200 nM,4800 ± 500 nM,3300 ± 500 nM,4000 ± 600 nM,1700 ± 700 nM,,,,,,,,,,,
"O=c1[nH]c2c(cc1S(=O)(=O)c1ccccc1)CCc1cc[nH]c1-2 [Compound 9b, 7-(Phenylsulfonyl)-1,4,5,9-tetrahydro-8H-pyrrolo[3,2-h]quinolin-8-one]",> 20000 nM,> 20000 nM,> 20000 nM,> 20000 nM,> 20000 nM,> 20000 nM,> 20000 nM,> 20000 nM,,,,,,,,,,,
"CCOC(=O)c1cc2c(n1C)-c1[nH]c(=O)c(S(=O)(=O)c3ccccc3)cc1CC2 [Compound 9j, Ethyl 1-methyl-7-(phenylsulfonyl)-1,4,5,9-tetrahydro-8H-pyrrolo[3,2-h]quinolin-8-one-2-carboxylate]",700 ± 100 nM,500 ± 100 nM,1100 ± 100 nM,1000 ± 100 nM,1000 ± 100 nM,900 ± 100 nM,1200 ± 100 nM,1000 ± 100 nM,,do not induce DNA photodamage,submicromolar,,,,,,,,
"N#Cc1cc2c([nH]c1=O)-c1c(ccn1S(=O)(=O)c1ccccc1)CC2 [Compound 9c, 1-(Phenylsulfonyl)-1,4,5,9-tetrahydro-8H-pyrrolo[3,2-h]quinolin-7-carbonitrile-8-one]",,,,,,,,,,,,> 20000 nM,> 20000 nM,> 20000 nM,> 20000 nM,> 20000 nM,> 20000 nM,> 20000 nM,> 20000 nM
"Cc1ccc(Cn2ccc3c2-c2[nH]c(=O)c(S(=O)(=O)c4ccccc4)cc2CC3)cc1 [Compound 9g, 1-(p-Methyl-benzyl)-7-(phenylsulfonyl)-1,4,5,9-tetrahydro-8H-pyrrolo[3,2-h]quinolin-8-one]",1600 ± 100 nM,1200 ± 200 nM,2700 ± 100 nM,2300 ± 200 nM,2700 ± 200 nM,2400 ± 100 nM,3800 ± 500 nM,2400 ± 200 nM,,,,,,,,,,,
"O=c1[nH]c2c(cc1S(=O)(=O)c1ccccc1)CCc1ccn(S(=O)(=O)c3ccccc3)c1-2 [Compound 9a, 1,7-bis(Phenylsulfonyl)-1,4,5,9-tetrahydro-8H-pyrrolo[3,2-h]quinolin-8-one]",> 20000 nM,> 20000 nM,> 20000 nM,> 20000 nM,> 20000 nM,> 20000 nM,> 20000 nM,> 20000 nM,,,,,,,,,,,
"COc1ccc(Cn2ccc3c2-c2[nH]c(=O)c(S(=O)(=O)c4ccccc4)cc2CC3)cc1 [Compound 9h, 1-(p-Methoxy-benzyl)-7-(phenylsulfonyl)-1,4,5,9-tetrahydro-8H-pyrrolo[3,24]quinolin-8-one]",,,,,,,,,,,,1600 ± 200 nM,1200 ± 200 nM,2800 ± 300 nM,2000 ± 200 nM,3100 ± 400 nM,2500 ± 200 nM,4200 ± 700 nM,1800 ± 100 nM
"CCOC(=O)c1cc2c(n1Cc1ccc(OC)cc1)-c1[nH]c(=O)c(S(=O)(=O)c3ccccc3)cc1CC2 [Compound 9m, Ethyl 1-(p-methoxy-benzyl)-7-(phenylsulfonyl)-1,4,5,9-tetrahydro-8H-pyrrolo[3,24] quinolin-8-one-2-carboxylate]",,,,,,,,,increase of cell percentage with collapsed mitochondrial potential,do not induce DNA photodamage,submicromolar,800 ± 100 nM,700 ± 100 nM,1100 ± 100 nM,1000 ± 200 nM,1000 ± 100 nM,900 ± 100 nM,1600 ± 200 nM,1400 ± 200 nM
"O=c1ccc2ccc3occc3c2o1 [Ang, angelicin, reference compound]",1000 ± 200 nM,900 ± 100 nM,3600 ± 400 nM,1500 ± 300 nM,1200 ± 100 nM,1000 ± 100 nM,4400 ± 500 nM,1500 ± 200 nM,,,,,,,,,,,
"Cn1ccc2c1-c1[nH]c(=O)c(S(=O)(=O)c3ccccc3)cc1CC2 [Compound 9d, 1-Methyl-7-(phenylsulfonyl)-1,4,5,9-tetrahydro-8H-pyrrolo[3,2-h]quinolin-8-one]",> 20000 nM,> 20000 nM,> 20000 nM,> 20000 nM,> 20000 nM,> 20000 nM,> 20000 nM,> 20000 nM,,,,,,,,,,,
"CCOC(=O)c1cc2c([nH]1)-c1[nH]c(=O)c(S(=O)(=O)c3ccccc3)cc1CC2 [Compound 9i, Ethyl 7-(phenylsulfonyl)-1,4,5,9-tetrahydro-8H-pyrrolo[3,2-h]quinolin-8-one-2-carboxylate]",3500 ± 400 nM,2500 ± 200 nM,5500 ± 200 nM,4600 ± 400 nM,6100 ± 200 nM,5400 ± 600 nM,6100 ± 200 nM,4300 ± 700 nM,,,,,,,,,,,
"CCOC(=O)c1cc2c(n1Cc1ccc(C)cc1)-c1[nH]c(=O)c(S(=O)(=O)c3ccccc3)cc1CC2 [Compound 9l, Ethyl 1-(p-methyl-benzyl)-7-(phenylsulfonyl)-1,4,5,9-tetrahydro-8H-pyrrolo[3,2-h] quinolin-8-one-2-carboxylate]",1500 ± 200 nM,1200 ± 100 nM,1600 ± 200 nM,1000 ± 200 nM,1200 ± 300 nM,1000 ± 100 nM,1700 ± 300 nM,1500 ± 200 nM,,,,,,,,,,,
